Test results from patent publication US20240285670A1, “THERAPEUTIC TREATMENT OF TUMORS BY BLOCKING THE HEME SYNTHESIS-EXPORT AXIS” (Università degli Studi di Torino, priority 2021, published 2024).

Assays:
SKCO1 cells [1] = experiment: SKCO1 cells viability (CellTiter-Fluor) as readout of proliferation; assay type: cell-based, human; conditions: 5 mM ALA at day 0, no medium refresh
Protocol: (A) Heme content in SHSY5Y cells non-treated (NT) or treated with 5 mM ALA for 15 hours. Values are expressed as pmol heme/mg protein. Data represent mean±SEM, n=3; *=P<0.05. (B, C) qRT-PCR analysis of the expression of ALAS1 (B) and FLVCR1a (C) in SHSY5Y cells non-treated (NT) or treated with 5 mM ALA for 15 hours. Transcript abundance, normalized to beta-actin mRNA expression, is expressed as a fold increase over a calibrator sample. Data represent mean±SEM, n=4. For statistical analyses, an unpaired Student's t-test was used; *p<0.05. (D) qRT-PCR analysis of the expression of ALAS1 in SKCO1 cells untreated (NT) or treated with 5 mM ALA for 24 hours. Transcript abundance, normalized to beta-actin mRNA expression, is expressed as a fold increase over a calibrator sample. Data represent mean±SEM, n=5. […] Band intensities were measured by densitometry and normalized to beta-actin expression. […] (F) Proliferation of SHSY5Y cells assessed by crystal violet staining at different time points (starting from the day after plating, named “day 0”). Treatment with 5 mM ALA occurred at “day 0” and cells were monitored until the end of the experiment without medium refresh. […] (G) SKCO1 cells viability measured by the CellTiter-Fluor Cell Viability Assay (Promega, Madison, WI USA, catalog n°G6080) at different time points, starting from the day after plating (named “day 0”), as a readout of cell proliferation. […]

SKCO1 cells [2] = experiment: Activity of mitochondrial ETC complexes I-IV in SKCO1 cells; assay type: cell-based, human; conditions: FLVCR1a-silenced vs scramble shRNA SKCO1 cells
Text: (A, C, E) Activities of the mitochondrial electron transport chain complexes I-IV. FLVCR1a-silenced Caco2 (A), SKCO1 (C) or C80 cells (E) are compared to cells expressing a scramble shRNA. Results were expressed as nmol NAD^+/min/mg mitochondrial protein for complex I, nmol reduced cytochrome c/min/mg mitochondrial protein for complexes II-III, nmol oxidized cytochrome c/min/mg mitochondrial protein for complex IV. Data represent mean±SEM, n=3. For statistical analyses, an unpaired Student's t-test was used; *=p<0.05, **=p<0.01. (B, D, F) Mitochondrial ATP levels measured by a bioluminescent assay kit. FLVCR1a-silenced Caco2 (B), SKCO1 (D) or C80 cells (F) are compared to cells expressing a scramble shRNA. Results are expressed as nmol/mg mitochondrial proteins. Data represent mean±SEM, n=3. […] Results were expressed as nmol NAD^+/min/mg mitochondrial protein for complex I, nmol reduced cytochrome c/min/mg mitochondrial protein for complexes II-III, nmol oxidized cytochrome c/min/mg mitochondrial protein for complex IV. […] (H) Mitochondrial ATP levels measured by a bioluminescent assay kit in Caco2 cells overexpressing FLVCR1a (indicated as FLVCR1a+) compared to cells stably transduced with an empty vector. Results are expressed as nmol/mg mitochondrial proteins. […]
The activity of mitochondria respiration complexes was measured according to (Wibom et al., 2002).

Row | Molecule | cell proliferation (cell viability) (SKCO1 cells [1]) | ETC complexes activity (SKCO1 cells [2])
1 | Cl.NCC(=O)CCC(=O)O [5-ALA, 5-Aminolevulinic acid hydrochloride] | Reduced proliferation | 
2 | FLVCR1a shRNA: shRNA specifically down-regulating FLVCR1a without targeting FLVCR1b; pLKO.1 lentiviral clone TRCN0000059599, antisense SEQ ID No.: 2 (antisense TTGCTAATGATGCTGTACTGG; sense CCAGTACAGCATCATTAGCAA) |  | increased ETC complexes activity
